Experimental data from patent US12459914B2, “Compounds and compositions for the treatment of tumors” (FONDAZIONE ISTITUTO ITALIANO DI TECNOLOGIA, priority 2019, dated 2025).
Like-named read-outs stand apart in the source and are kept apart here.

Legend:
BxPC-3 cells = test: Association with olaparib (given alone or in combination), cell viability / cytotoxicity; assay type: cell-based; details: olaparib 10 μM, 72 h
Method: BxPC-3 cells were grown in RPMI 1640 containing 10% FBS, 100 U/ml penicillin/streptomycin, 2 mM glutamine. All media and supplements were from Sigma-Aldrich. Cultures were routinely tested for Mycoplasma contamination. Treatments (Olaparib and BRCA2-Rad51 disruptors) were administered in culture medium supplemented with 0.6% DMSO. The same amount of DMSO was added to the control, untreated cultures.
Cell viability was assessed by CellTiter Glo, Luminescent Cell Viability Assay. Briefly, BxPC-3 cells (1×10^4/well) were plated in white 96-well plates with clear bottom and treated for 72 h with olaparib (10 μM) or with the BRCA2-Rad51 disruptors, given alone or in combination. After treatments, the plate was allowed to equilibrate at room temperature for 30 min and the CellTiter-Glo reactive was directly added to each well. The plate was kept on a shaker for 2 min to induce cell lysis and its luminescence was measured by using a Fluoroskan Ascent FL reader (Labsystems) using manufacturer's instructions.
Cell death was assessed by applying the CellTox™ Green Cytotoxicity assay (Promega). Briefly, BxPC-3 (1×10^4/well) were plated in black 96-well plates with clear bottom and treated for 72 h with olaparib (10 μM) or with the BRCA2-Rad51 disruptors, given alone or in combination. At the end of treatment, the CellTox™ dye was added to cell cultures and the green fluorescence signal, which is produced by the binding interaction with dead cell DNA, was measured following the manufacturer's instructions. The fluorescence signal was detected using the EnSpire 2300 Multilabel Reader (Perkin Elmer); for each sample, the obtained signal was normalized on the number of viable cells, detected by the CellTiterGlo reagent.

[1] = Pharmacokinetic studies in mice, plasma levels by LC/MS-MS; assay type: in vivo, C57B6/J mice; details: for half-life: read-out: t1/2 (calc)
Method: Male C57B6/J mice, 8 weeks old were used (Charles River). All procedures were performed in accordance with the Ethical Guidelines of European Communities Council (Directive 2010/63/EU of 22 Sep. 2010) and accepted by the Italian Ministry of Health. All efforts were made to minimize animal suffering and to use the minimal number of animals required to produce reliable results, according to the “3Rs concept”. Animals were group-housed in ventilated cages and had free access to food and water. They were maintained under a 12-hour light/dark cycle (lights on at 8:00 am) at controlled temperature (21° C.±1° C.) and relative humidity (55%±10%).
Compound d.12 was administered orally (PO), intraperitoneally (IP) and intravenously (IV) to C57B6/J male mice at 2 mg/kg/10 ml, 20 mg/kg/10 ml and 2 mg/kg/5 ml, respectively. Vehicle was composed by PEG400/Tween 80/Saline solution at 10/10/80% in volume, respectively for PO and IV administration. For IP administration, the same vehicle was used with the addition of 10% DMSO in final volume. Three animals per dose were treated. Blood samples at 0, 15, 30, 60, 120, 240, and 480 min after administration were collected for PO and IP arms. Blood samples at 0, 5, 15, 30, 60, 120 and 240 min after administration were collected for IV arm. Plasma was separated from blood by centrifugation for 15 min at 1500 rpm a 4° C., collected in a eppendorf tube and frozen (−80° C.). Control animals treated with vehicle only were also included in the experimental protocol.
Plasma samples were centrifuged at 21.100×g for 15 min at 4° C. An aliquot of each plasma sample was extracted (1:3) with cold CH3CN containing 200 nM of d.48 as internal standard being a close analogue of the parent compound. A calibration curve was prepared in naïve mouse plasma over a 1 nM-10 μM range. Three quality control samples were prepared by spiking the parent compound in naïve mouse plasma to 20, 200 and 2000 nM as final concentrations. The calibrators and quality control samples were extracted (1:3) with the same extraction solution as the plasma samples. The plasma samples, calibrators and quality control samples were centrifuged at 3.270×g for 15 min at 4° C. The supernatants were further diluted (1:1) with H2O, and analyzed by LC/MS-MS on a Waters ACQUITY UPLC/MS TQD system consisting of a Triple Quadrupole Detector (TQD) Mass Spectrometer equipped with an Electrospray Ionization interface and a Photodiode Array e, Detector from Waters Inc. (Milford, MA, USA). Electrospray ionization was applied in positive mode. Compound-dependent parameters as MRM transitions and collision energy were developed for the parent compound and the internal standard. The analyses were run on an ACQUITY UPLC BEH C18 (50×2.1 mmID, particle size 1.7 μm) with a VanGuard BEH C18 pre-column (5×2.1 mmID, particle size 1.7 μm) at 40° C., using H2O+0.1% HCOOH (A) and CH3CN+0.1% HCOOH (B) as mobile phase at 0.5 mL/min. A linear gradient was applied starting at 40% B with an initial hold for 0.2 min, then 40-100% B in 2 min, followed by a hold for 0.1 min at 100% B. All samples (plasma samples, calibrators and quality controls) were quantified by MRM peak area response factor in order to determine the levels of the parent compound in plasma. The plasma concentrations versus time were plotted and the profiles were fitted using PK Solutions Excel Application (Summit Research Service, USA) in order to determine the pharmacokinetic parameters. The results are reported in Tables 2 and 3 and in FIGS. 1, 2 and 3.

[2] = male, C57B6/J, mouse, plasma, mice, IP 20 mg/kg
[3] = male, C57B6/J, mouse, plasma, mice, IV 2 mg/kg
[4] = male, C57B6/J, mouse, plasma, mice, PO 2 mg/kg
[5] = male, C57B6/J, mouse plasma, IV 2 mg/kg, read-out: Average conc.
[6] = male, C57B6/J, mouse plasma, PO 2 mg/kg, read-out: Average conc.

CCC(=O)N1N=C(c2c(-c3ccccc3)c3cc(Cl)ccc3[nH]c2=O)CC1c1ccc(OC)cc1 (stereo not drawn) [d.12, 6-chloro-3-[3-(4-methoxyphenyl)-2-propanoyl-3,4-dihydropyrazol-5-yl]-4-phenyl-1H-quinolin-2-one]
Olaparib Assoc. (BxPC-3 cells): synergy
AUC [1, 2]: 9280 ng·h/mL
Cmax [1, 2]: 5300 ng/mL
Tmax [1, 2]: 30 min
half-life [1, 2]: 175 min
AUC [1, 3]: 899 ng·h/mL
Cmax [1, 3]: 973 ng/mL
Tmax [1, 3]: 5 min
clearance ([1]; male, C57B6/J, mouse, plasma, mice, IV 2 mg/kg, read-out: CL (calc)): 33 mL/min/kg
Vd ([1]; male, C57B6/J, mouse, plasma, mice, IV 2 mg/kg, read-out: VD (calc)): 2.2 L/kg
half-life [1, 3]: 47 min
AUC [1, 4]: 100 ng·h/mL
Cmax [1, 4]: 76 ng/mL
Tmax [1, 4]: 30 min
half-life [1, 4]: 281 min
concentration at 5 min ([1]; male, C57B6/J, mouse plasma, IV 2 mg/kg, 5 min, read-out: Average conc.): 973 ng/mL
concentration at 15 min [1, 5]: 622 ng/mL
concentration at 30 min [1, 5]: 515 ng/mL
concentration at 60 min [1, 5]: 337 ng/mL
concentration at 120 min [1, 5]: 146 ng/mL
concentration at 240 min [1, 5]: 23 ng/mL
concentration at 0 min ([1]; male, C57B6/J, mouse plasma, PO 2 mg/kg, 0 min, read-out: Average conc.): 0 ng/mL
concentration at 15 min [1, 6]: 42 ng/mL
concentration at 30 min [1, 6]: 76 ng/mL
concentration at 60 min [1, 6]: 30 ng/mL
concentration at 120 min [1, 6]: 21 ng/mL
concentration at 240 min [1, 6]: 7 ng/mL
concentration at 480 min ([1]; male, C57B6/J, mouse plasma, PO 2 mg/kg, 480 min, read-out: Average conc.): 4 ng/mL
F ([1]; mice, 2 mg/kg): 11%
CL (calc) ([1]; mice, IP 20 mg/kg): 27 mL/min/kg
VD (calc) ([1]; mice, IP 20 mg/kg): 6.701 L/kg
CL (calc) ([1]; mice, PO 2 mg/kg): 222 mL/min/kg
VD (calc) ([1]; mice, PO 2 mg/kg): 90.009 L/kg
